Measured values as given in US11214803B2, “Modulators of YAP1 expression” (Ionis Pharmaceuticals, Inc., priority 2019, dated 2022).
Marks after values point to notes of the source that are not given here. Strand notation (5' to 3'): a small letter for the sugar, then the base; units joined by * are phosphorothioate-linked, units joined directly phosphodiester-linked; [ ] holds rarer units or linkages, { } end groups; capitals alone tell only the bases. k = constrained ethyl (cEt); [5mC] = 5-methylcytosine; d = 2'-deoxy (DNA)

Tested on: Yap1 mRNA
Experiment: Antisense inhibition of human Yap1 in A-431 cells by cEt gapmers, single dose (Example 4, RTS4814)
Assay type: cell-based
How it was run: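 A-431 cells took up 3-10-3 cEt gapmers (16-mer, full phosphorothioate, 5-methylcytosines) by free uptake at 2,000 nM for about 48 h. Yap1 mRNA was quantified by qRT-PCR, normalized to total RNA (RIBOGREEN), and reported as % of untreated control.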

[1] = Table 15, A-431 cells, 5,000 cells per well, free uptake, 2,000 nM, approximately 48 hours, RTS4814, normalized to RIBOGREEN, Yap1 mRNA relative to untreated control, * = targets amplicon region of primer probe set
[2] = Yap1 mRNA remaining as percent of untreated control, 3-10-3 cEt gapmers, A-431 cells, Table 37
[3] = Table 16, A-431 cells, 5,000 cells per well, free uptake, 2,000 nM, approximately 48 hours, RTS4814, normalized to RIBOGREEN, Yap1 mRNA relative to untreated control cells
[4] = table after Table 37, headed TABLE 32 (gapmers targeting SEQ ID NO.: 3), A-431 cells, free uptake, 2,000 nM, approximately 48 hours, RTS4814
[5] = Yap1 mRNA remaining as percent of untreated control, 3-10-3 cEt gapmers, A-431 cells, Table 36
[6] = Table 14, A-431 cells, 5,000 cells per well, free uptake, 2,000 nM, approximately 48 hours, RTS4814, normalized to RIBOGREEN, Yap1 mRNA relative to untreated control, * = targets amplicon region of primer probe set
[7] = Table 17, A-431 cells, 5,000 cells per well, free uptake, 2,000 nM, approximately 48 hours, RTS4814, normalized to RIBOGREEN, Yap1 mRNA relative to untreated control cells

1075361 (kT*k[5mC]*kT*dT*dA*dA*dG*dG*dG*dA*dA*dT*dG*kT*kA*kT; antisense) [Compound 1075361]
YAP1 (% UTC) [1]: 69 % UTC

1074615 (DNA kT*kT*k[5mC]*dA*dT*dA*dG*d[5mC]*dT*dT*dA*dT*dA*kT*kT*kG; antisense) [compound 1074615]
YAP1 (% UTC) [2]: 8 % UTC

1075159 (k[5mC]*kA*kA*dA*dA*dA*dA*dT*d[5mC]*dA*d[5mC]*dG*dG*k[5mC]*kA*kA; antisense) [compound 1075159]
YAP1 (% UTC) [2]: 63 % UTC

1075106 (antisense k[5mC]*kA*kA*dA*dT*dT*dA*dT*dA*dA*dG*dG*dT*k[5mC]*k[5mC]*kT) [Compound 1075106]
YAP1 (% UTC) [3]: 10 % UTC

1074817 (k[5mC]*kT*kG*dA*dA*dT*dA*dT*dT*dG*d[5mC]*d[5mC]*dA*k[5mC]*k[5mC]*k[5mC]; antisense) [Compound 1074817]
YAP1 (% UTC) [1]: 8 % UTC

1074882 (kG*k[5mC]*kT*dA*dA*d[5mC]*dT*d[5mC]*d[5mC]*dT*dG*d[5mC]*d[5mC]*kG*kA*kA; antisense) [compound 1074882]
YAP1 (% UTC) [4]: 73 % UTC

1075809 (kT*kA*kG*d[5mC]*dA*dA*dT*dA*dG*dA*dG*dT*dA*kA*k[5mC]*k[5mC]; antisense) [Compound 1075809]
YAP1 (% UTC) [1]: 13 % UTC

1076450 (k[5mC]*kT*kT*dG*dA*dA*dT*dA*dG*d[5mC]*dT*dA*dT*kG*kT*kG; antisense) [Compound 1076450]
YAP1 (% UTC) [3]: 13 % UTC

1075554 (kT*kT*kG*d[5mC]*dA*dA*dT*dA*dG*dT*d[5mC]*dA*d[5mC]*k[5mC]*k[5mC]*kA; antisense) [Compound 1075554]
YAP1 (% UTC) [3]: 56 % UTC

1074807 (k[5mC]*k[5mC]*kA*dT*dA*dT*dA*dG*dA*dA*dG*dG*d[5mC]*kA*kT*kG; antisense) [compound 1074807]
YAP1 (% UTC) [2]: 75 % UTC

1076246 (kT*k[5mC]*k[5mC]*dT*dA*dA*dA*dA*dA*dA*d[5mC]*dT*dA*kG*kT*kG; antisense) [compound 1076246]
YAP1 (% UTC) [5]: 75 % UTC

1074774 (k[5mC]*kA*kA*dG*dA*dA*dT*dA*d[5mC]*d[5mC]*d[5mC]*dA*dG*kT*kT*kA; antisense) [compound 1074774]
YAP1 (% UTC) [5]: 16 % UTC

1074710 (antisense k[5mC]*kT*k[5mC]*dT*dA*dG*dA*dA*d[5mC]*dA*dG*d[5mC]*dT*kG*k[5mC]*k[5mC]) [compound 1074710]
YAP1 (% UTC) [5]: 42 % UTC

1075713 (kA*kA*kT*d[5mC]*dA*dA*d[5mC]*d[5mC]*dT*dT*dG*dT*dT*kA*kG*kA; antisense) [Compound 1075713]
YAP1 (% UTC) [1]: 58 % UTC

1075456 (antisense kT*kT*kA*d[5mC]*dG*dA*dA*dA*dT*dG*dT*dT*dT*kA*kG*kT) [Compound 1075456]
YAP1 (% UTC) [6]: 61 % UTC

1076055 (kA*kA*kT*dT*dA*d[5mC]*dT*dA*dA*d[5mC]*dA*dA*dT*k[5mC]*kT*k[5mC]; antisense) [compound 1076055]
YAP1 (% UTC) [2]: 45 % UTC

1075767 (kT*kA*kT*dT*dA*d[5mC]*dA*d[5mC]*dA*dG*dG*d[5mC]*dA*kG*kG*k[5mC]; antisense) [compound 1075767]
YAP1 (% UTC) [2]: 12 % UTC

1076160 (kT*kT*kA*dT*dA*d[5mC]*dT*dA*dG*dT*dA*d[5mC]*dG*kG*k[5mC]*kA; antisense) [Compound 1076160]
YAP1 (% UTC) [6]: 20 % UTC

1075169 (antisense kA*kA*kA*dA*d[5mC]*dG*dG*dA*dG*dT*dA*dA*dT*kG*k[5mC]*k[5mC]) [Compound 1075169]
YAP1 (% UTC) [1]: 39 % UTC

1076032 (kT*kA*kT*dA*dA*dT*dT*dT*d[5mC]*d[5mC]*d[5mC]*dT*dG*kA*kT*k[5mC]; antisense) [Compound 1076032]
YAP1 (% UTC) [6]: 105 % UTC

1074624 (antisense kG*kG*k[5mC]*dT*dT*dA*dT*dT*d[5mC]*dT*dA*dG*dA*kA*kA*k[5mC]) [Compound 1074624]
YAP1 (% UTC) [6]: 65 % UTC

1075009 (antisense kA*kT*kA*dA*dT*d[5mC]*dG*dA*dA*d[5mC]*dA*dT*dT*kG*kT*kG) [Compound 1075009]
YAP1 (% UTC) [1]: 43 % UTC

1075105 (antisense kA*kA*kT*dT*dA*dT*dA*dA*dG*dG*dT*d[5mC]*d[5mC]*kT*kA*k[5mC]) [Compound 1075105]
YAP1 (% UTC) [1]: 42 % UTC

1076099 (k[5mC]*k[5mC]*kT*d[5mC]*dA*dA*dA*dA*d[5mC]*dT*dT*dG*dG*kA*kT*kT; antisense) [Compound 1076099]
YAP1 (% UTC) [7]: 41 % UTC

1075296 (antisense kA*kT*kT*dA*dT*dA*dA*dG*d[5mC]*dT*dG*dT*dG*kT*kT*kG) [Compound 1075296]
YAP1 (% UTC) [6]: 18 % UTC

1076096 (kA*kA*kT*dA*dA*dT*dA*dA*dA*d[5mC]*dG*dA*dT*kT*k[5mC]*kT; antisense) [Compound 1076096]
YAP1 (% UTC) [6]: 71 % UTC

1074839 (kT*kA*kT*dA*dA*d[5mC]*dA*dA*d[5mC]*dA*dT*dG*d[5mC]*kT*kT*kG; antisense) [compound 1074839]
YAP1 (% UTC) [2]: 33 % UTC

1074880 (k[5mC]*kT*k[5mC]*d[5mC]*dT*dG*d[5mC]*d[5mC]*dG*dA*dA*dG*d[5mC]*kA*kG*kT; antisense) [compound 1074880]
YAP1 (% UTC) [4]: 101 % UTC

1074339 (antisense kA*k[5mC]*kT*dG*dG*dA*dT*dT*dT*dT*dG*dA*dG*kT*k[5mC]*k[5mC]) [Compound 1074339]
YAP1 (% UTC) [7]: 31 % UTC

1075266 (antisense kT*kA*kT*dT*dA*dG*dG*dA*d[5mC]*dA*dA*dA*dG*kT*kA*k[5mC]) [Compound 1075266]
YAP1 (% UTC) [3]: 57 % UTC

1075715 (kG*kA*kA*dT*dT*dA*d[5mC]*dA*dA*dT*d[5mC]*dA*dA*k[5mC]*k[5mC]*kT; antisense) [Compound 1075715]
YAP1 (% UTC) [7]: 12 % UTC

1075904 (kG*kT*kA*dT*dA*dG*dG*dA*dT*d[5mC]*dT*dA*d[5mC]*kT*kA*kA; antisense) [Compound 1075904]
YAP1 (% UTC) [6]: 51 % UTC

1074134 (k[5mC]*kG*k[5mC]*dG*dG*d[5mC]*d[5mC]*d[5mC]*d[5mC]*dG*d[5mC]*dA*dT*k[5mC]*k[5mC]*k[5mC]; antisense) [compound 1074134]
YAP1 (% UTC) [5]: 79 % UTC

1074422 (kA*kA*kA*d[5mC]*dA*dG*dG*d[5mC]*dT*d[5mC]*dA*d[5mC]*dT*kT*k[5mC]*k[5mC]; antisense) [compound 1074422]
YAP1 (% UTC) [5]: 9* % UTC

1076215 (kT*kT*kA*dT*dA*dA*d[5mC]*dA*dG*dA*d[5mC]*dT*dG*kG*k[5mC]*kT; antisense) [compound 1076215]
YAP1 (% UTC) [2]: 47 % UTC

1076384 (kT*kA*kT*dA*dA*dG*dG*dG*dA*d[5mC]*dT*dT*dG*k[5mC]*kT*kG; antisense) [Compound 1076384]
YAP1 (% UTC) [6]: 25 % UTC

1076449 (k[5mC]*k[5mC]*kT*dT*dA*dT*dA*dA*dT*dG*d[5mC]*dA*dA*kT*k[5mC]*k[5mC]; antisense) [Compound 1076449]
YAP1 (% UTC) [1]: 2 % UTC

1075360 (kA*kG*kG*d[5mC]*dA*dA*d[5mC]*dA*dA*d[5mC]*dA*dT*d[5mC]*kT*kA*kA; antisense) [Compound 1075360]
YAP1 (% UTC) [6]: 50 % UTC

1074625 (antisense kA*kT*kA*dA*dG*dG*dG*d[5mC]*dT*dT*dA*dT*dT*k[5mC]*kT*kA) [Compound 1074625]
YAP1 (% UTC) [1]: 42 % UTC

1075478 (k[5mC]*kA*kT*dT*dT*dT*dG*dA*dA*d[5mC]*d[5mC]*d[5mC]*dT*kT*kT*kA; antisense) [compound 1075478]
YAP1 (% UTC) [5]: 20 % UTC

1076448 (k[5mC]*kT*kT*dA*dT*dA*dA*dT*dG*d[5mC]*dA*dA*dT*k[5mC]*k[5mC]*kT; antisense) [Compound 1076448]
YAP1 (% UTC) [6]: 2 % UTC

1075734 (kA*kG*kG*d[5mC]*dA*dA*dT*dA*dA*d[5mC]*d[5mC]*dT*d[5mC]*kG*kA*kG; antisense) [compound 1075734]
YAP1 (% UTC) [5]: 26 % UTC

1074241 (antisense kG*kA*kT*dG*dT*d[5mC]*dT*dT*dT*dG*d[5mC]*d[5mC]*dA*kT*k[5mC]*kT) [Compound 1074241]
YAP1 (% UTC) [1]: 72 % UTC

1074691 (antisense k[5mC]*k[5mC]*k[5mC]*dT*d[5mC]*d[5mC]*d[5mC]*d[5mC]*d[5mC]*dT*dA*dA*dG*k[5mC]*kT*kA) [Compound 1074691]
YAP1 (% UTC) [7]: 76 % UTC

1075511 (k[5mC]*kA*kA*dT*dA*dT*dT*dA*dT*d[5mC]*dT*dG*dA*kG*k[5mC]*kT; antisense) [compound 1075511]
YAP1 (% UTC) [2]: 106 % UTC

1075136 (antisense k[5mC]*kT*kA*dG*dA*dA*dT*dA*dT*dT*dA*dA*dA*kG*kG*kG) [Compound 1075136]
YAP1 (% UTC) [6]: 87 % UTC

1075073 (antisense k[5mC]*kA*kT*dA*dA*dA*dA*dG*dT*dT*d[5mC]*d[5mC]*d[5mC]*k[5mC]*kA*kG) [Compound 1075073]
YAP1 (% UTC) [1]: 51 % UTC

1074689 (antisense k[5mC]*kT*k[5mC]*d[5mC]*d[5mC]*d[5mC]*d[5mC]*dT*dA*dA*dG*d[5mC]*dT*kA*kA*kA) [Compound 1074689]
YAP1 (% UTC) [1]: 70 % UTC

1074113 (k[5mC]*kT*k[5mC]*d[5mC]*dA*dA*d[5mC]*dT*d[5mC]*d[5mC]*d[5mC]*dT*dT*kG*kA*k[5mC]; antisense) [Compound 1074113]
YAP1 (% UTC) [1]: 61 % UTC
